Source: patent publication US20160008380A1, “TARGETING GLUTAMINE METABOLISM IN BRAIN TUMORS” (THE JOHNS HOPKINS UNIVERSITY, priority 2013, published 2016)
Entries after “also recorded” stand apart in the source; their conditions may differ.

Legend:
[1] = system: D425Med; assay: Sub-G1 (apoptotic) population by flow cytometry; format: cell-based, human
Excerpt: (§1) FIG. 11: Medulloblastoma cell lines expressing c-MYC and glutaminase (GLS) are sensitive to inhibitors of glutamine metabolism. c-MYC levels positively correlate with GLS levels in D425Med and D283Med (A) as indicated by western blot. The growth of D283Med (B) and D425Med (C) is inhibited when treated with DON or Acivicin as measured by MTS assay. […] Cells were fixed and stained with an anti-cleaved caspase-3 antibody followed by a Cy-3 conjugated secondary and a DAPI counterstain. Multiple images were taken of each treatment and Cy3 positive cells were counted using Adobe Photoshop. Representative images are in D. Acivicin and DON treatment cause an increase the in sub-G1 (apoptotic) population of D425Med (E) and D283Med (F) as measured by flow cytometry.

[2] = system: D283Med; assay: Sub-G1 (apoptotic) population by flow cytometry; format: cell-based, human
Excerpt: as §1

[3] = system: Control cells (neural stem cells); assay: Cleaved caspase-3 staining (apoptosis); format: cell-based, human; conditions: 72 h treatment
Method: (§2) Cells were treated with acivicin or DON for 72 h. The cells were then fixed and stained with an antibody for cleaved caspase-3, followed by a Cy-3 conjugated secondary and a DAPI counterstain. Multiple images were taken of each treatment and cleaved-caspase-3 positive cells counted using Adobe Photoshop. […] Control cells were unaffected by treatment. Representative images are seen in (B and D). Images colorized with Adobe Photoshop.

[4] = system: neural stem cell models of medulloblastoma; assay: Cleaved caspase-3 staining (apoptosis); format: cell-based, human; conditions: 72 h treatment, p<0.05
Method: as §2

[5] = system: D283 (D283Med, high-MYC medulloblastoma cell line); assay: MTS cell growth assay; format: cell-based, human; conditions: for growth as measured by MTS assay: D283 / D283Med, increasing concentrations
Method: (§3) FIG. 4: Growth as measured by MTS assay after 3 days of acivicin treatment at increasing doses. The low-MYC cell line, UW228 (FIG. 4A), is not sensitive to treatment with acivicin. The high-MYC cell lines, D283 (FIG. 4B) and D425 (FIG. 4C) are sensitive to acivicin, showing an inhibition of growth of approximately 50% or more at a concentration of 10 uM acivicin.
as §1
(§4) For relative cell growth assays, cells were seeded in 96-well plates in triplicate at densities of 5000 cells per well. Cell proliferation was monitored at the indicated number of days using the colorimetric CellTiter 96 MTS assay (Promega, Madison, Wis.).
(§5) We tested this hypothesis using UW228 (low MYC) and D283 and D425 (high MYC) medulloblastoma cell lines.

[6] = system: D425 (D425Med, high-MYC medulloblastoma cell line); assay: MTS cell growth assay; format: cell-based, human; conditions: for growth as measured by MTS assay: D425 / D425Med, increasing concentrations
Method: as §3, §1, §4, §5

[7] = system: MYC transduced hindbrain derived human neural stem cell PNET models; assay: BrdU proliferation assay, PNET models; format: cell-based; conditions: FIG. 10B
Method: (§6) FIG. 10 A: Acivicin suppresses the growth of MYC containing human neural stem cell PNET models. Graph comparing percent BrdU positivity in mock treated (blue) and with 10 uM acivicin (red) treated cells. […] FIG. 10 B: Acivicin suppresses the growth of MYC containing human neural stem cell PNET models. The graph compares percent BrdU positivity in mock treated (blue) and with 10 uM DON (red) treated cells.
(§7) For measurement of proliferation, cells were treated with the indicated drug for 18 hours and were then pulsed with bromo-deoxyuridine for an additional 6 hours. Cells were triturated to single cells and then cytospun onto microscope slides. After washing cells once with PBS, they were fixed with 4% paraformaldehyde for 15 minutes, permeabilized with 0.1% Triton/PBS, denatured with 0.1N HCl for 15 minutes, then blocked with 5% normal goat serum/PBST or 5% BSA/PBST, and incubated with anti-BrdU (Sigma) antibody at 37 degrees for one hour. After washing three times with PBST, cells were incubated for 45 minutes in the dark with the appropriate Cy-2 or Cy-3 conjugated secondary antibody (Jackson Immunoresearch). […] Multiple high power fields were photographed at random, and the percent BrdU positivity was calculated by counting first BrdU positive cells and then DAPI positive cells and dividing the former by the latter. […]

[8] = system: KNS42 (low-MYC glioma cell line); assay: MTS cell growth assay; format: cell-based; conditions: KNS42, 3 days, same concentrations as SF188 and UW479
Method: FIG. 9: MTS assay showing sensitivity of high MYC SF188 and […] glioma cell lines and insensitivity of low-MYC KNS42 to glutamine metabolic inhibitors DON and acivicin. Cell growth was measured over 3 days at increasing concentrations of drug.
as §4

[9] = administered orally at therapeutically effective levels; cited from earlier work
[10] = system: UW228 (low-MYC medulloblastoma cell line); assay: MTS cell growth assay; format: cell-based, human; conditions: UW228, 3 days of treatment at increasing concentrations
Method: as §3, §4, §5

[11] = system: D425Med; assay: Cleaved caspase-3 immunofluorescence (apoptosis); format: cell-based, human; conditions: n=3, p<0.05
Excerpt: as §1

[12] = system: hindbrain derived neurospheres transduced with oncogenes not including MYC; assay: BrdU proliferation assay, PNET models; format: cell-based, human; conditions: 10 uM DON, no MYC
Method: as §6, §7

[13] = system: human neural stem cells transformed without MYC (SV40 control); assay: BrdU proliferation assay; format: cell-based
Method: (§8) FIG. 6: Suppression of proliferation of MYC-driven human neural stem cell models of medulloblastoma by acivicin. Two human neurosphere lines were treated with 10 uM acivicin for four days. On the fourth day, the spheres were pulsed with BrdU for 6 h. Following the pulse, the spheres were made single cells and fixed onto glass slides. Staining was performed using an anti-BrdU antibody followed by a secondary antibody conjugated to Cy3 and a DAPI counterstain. Images were taken at 400× (FIG. 6A, top panel). DAPI positive and BrdU positive (red) cells in the image were counted using Adobe Photoshop (FIG. 6A, bottom panel). An average of % positive BrdU cells was taken from three images. Error bars indicate SEM. *p=0.012.
(§9) FIG. 14: Acivicin decreases proliferation in neural stem cell models of MYC-driven medulloblastoma. Human neural stem cells derived from the developing cerebellum were transduced with lentiviral vectors coding for oncogenic elements associated with high-risk, MYC-driven medulloblastoma. SV40 was used as a control to immortalize the cells. The transduced neural stem cells were treated with acivicin for 72 h, and pulsed with bromodeoxyuridine for the final 6 hours of treatment. Cells were fixed and stained with an anti-BrdU antibody followed by a Cy-3 conjugated secondary and a DAPI counterstain. Multiple images were taken of each treatment and BrdU positive cells were counted using Adobe Photoshop. […] Representative images are in B.
(§10) For measurement of proliferation, cells were treated with the indicated drug for 18 hours and were then pulsed with bromo-deoxyuridine for an additional 6 hours. Cells were triturated to single cells and then cytospun onto microscope slides. After washing cells once with PBS, they were fixed with 4% paraformaldehyde for 15 minutes, permeabilized with 0.1% Triton/PBS, denatured with 0.1N HCl for 15 minutes, then blocked with 5% normal goat serum/PBST or 5% BSA/PBST, and incubated with anti-BrdU (Sigma) antibody at 37 degrees for one hour. After washing three times with PBST, cells were incubated for 45 minutes in the dark with the appropriate Cy-2 or Cy-3 conjugated secondary antibody (Jackson Immunoresearch). Cells were counterstained with DAPI and mounted with anti-fade (Vectastain). Multiple high power fields were photographed at random, and the percent BrdU positivity was calculated by counting first BrdU positive cells and then DAPI positive cells and dividing the former by the latter.

[14] = system: MYC-driven human neural stem cell models of medulloblastoma (cerebellar neurospheres); assay: BrdU proliferation assay; format: cell-based
Method: as §8, §9, §10

[15] = system: MYC transduced cortex derived human neural stem cell PNET models; assay: BrdU proliferation assay, PNET models; format: cell-based; conditions: FIG. 10A
Method: as §6, §7

[16] = system: non-MYC transformed neurospheres; assay: Cell cycle analysis (sub 2N population, flow cytometry); format: cell-based, human; conditions: 3 days of treatment, propidium iodide flow cytometry
Method: (§11) FIG. 7: Cell cycle analysis was performed using a Guava flow cytometer following 3 days of treatment in acivicin. Neurospheres transfected with MYC show an increase in the sub 2N population following 3 days of treatment with acivicin, indicating an increase in apoptosis after treatment.
(§12) We also asked this question using human neural stem cell models of aggressive brain tumors. We compared the sensitivity of human neural stem cells transduced with a package of oncogenes that contain MYC versus those that were transformed without using MYC.

[17] = system: Neurospheres transfected with MYC; assay: as above; format: cell-based, human; conditions: 3 days of treatment, propidium iodide flow cytometry
Method: as §11, §12

[18] = system: UW228 cells engineered to express MYC (UW228-UWM13); assay: MTS cell growth assay; format: cell-based, human; conditions: 3 days of drug treatment
Method: Values show mean (n=3) and error bars indicated standard deviation. FIG. 5B: The percent decrease in optical density between no drug and 50 uM acivicin. Error bars indicate SEM. *P=0.00029.
as §4
We next investigated if increasing MYC and GLS expression in a low MYC cell line could confer sensitivity to glutamine anti-metabolites.

[19] = system: D283Med xenografts; assay: D283Med orthotopic and flank xenografts in nude mice; format: in vivo; conditions: IP 75 mg/kg acivicin 4 times a week, four weeks
Method: FIG. 13: Mice treated with Acivicin develop fewer and smaller flank tumors than untreated mice. Ten immunodeficient (nude) mice received orthotopic and flank xenografts of D283Med. Mice in the treatment group (n=5) were treated 4 times a week with an IP dose of 75 mg/kg of acivicin each time. Mice in the control group (n=5) received an IP injection of sterile PBS. After four weeks, all mice were sacrificed and brains and any flank tumors removed. 100% of the control group developed flank tumors, while only 40% of the treatment group developed flank tumors. The PBS treated mice also developed larger flank tumors (A, bars indicate mean tumor size, error bars SD).

[20] = system: cortex derived neurospheres transduced with oncogenes not including MYC; assay: BrdU proliferation assay, PNET models; format: cell-based, human; conditions: 10 uM acivicin, no MYC
Method: as §6, §7

[21] = 10 uM acivicin, four days, BrdU pulse 6 h

[N-]=[N+]=CC(=O)CC[C@H](N)C(=O)O [DON, 6-Diazo-5-oxo-L-norleucine]
sub-G1 (apoptotic) population [1]: increase | sub-G1 (apoptotic) population [2]: increase | apoptosis (cleaved-caspase-3 positive cells) [3]: unaffected | apoptosis (cleaved-caspase-3 positive cells) [4]: significant increase in apoptosis | growth as measured by MTS assay [5]: suppressed; also recorded: inhibited | growth as measured by MTS assay [6]: suppressed; also recorded: inhibited | sensitivity of MYC driven PNET models [7]: sensitive | reduction in growth [8]: modest reduction | gastrointestinal (GI) toxicity [9]: results in gastrointestinal (GI) toxicity | growth as measured by MTS assay (sensitivity) [10]: relatively resistant | apoptosis (cleaved caspase-3 immunofluorescence) [11]: increase apoptosis | reduction in proliferation [12]: did not respond strongly; also recorded: slight reduction

N[C@H](C(=O)O)[C@@H]1CC(Cl)=NO1 [acivicin, (2S)-Amino[(5S)-3-chloro-4,5-dihydro-1,2-oxazol-5-yl]ethanoic acid]
sub-G1 (apoptotic) population [1]: increase | sub-G1 (apoptotic) population [2]: increase | apoptosis (cleaved-caspase-3 positive cells) [3]: unaffected | apoptosis (cleaved-caspase-3 positive cells) [4]: significant increase in apoptosis | growth as measured by MTS assay [5]: suppressed | growth as measured by MTS assay ([5]; listed as Acivicin): inhibited | inhibition at 10 µM ([5]; Homo sapiens, 72 h, D283, 10 uM acivicin, 3 days): ≥ 50% | growth as measured by MTS assay [6]: suppressed | growth as measured by MTS assay ([6]; listed as Acivicin): inhibited | inhibition at 10 µM ([6]; Homo sapiens, D425 Med, 72 h, D425, 10 uM acivicin, 3 days): ≥ 50% | change in proliferation (% BrdU positive cells) [13, 21]: insensitive; also recorded: no change | proliferation (BrdU positive cells) ([13]; SV40 control, acivicin 72 h, BrdU for the final 6 hours): no change | reduction of proliferation (% BrdU positive cells) [14, 21]: ~30% | growth after treatment (FIG. 6) ([14]; MYC-transformed human neural stem cells): decreased growth | proliferation (BrdU positive cells) ([14]; acivicin 72 h, BrdU for the final 6 hours): significant decrease | sensitivity of MYC driven PNET models [15]: sensitive | reduction in growth [8]: modest reduction | sub 2N population (apoptosis) [16]: did not show an increase; also recorded: do not show any increase | sub 2N population (apoptosis) [17]: increased apoptosis; also recorded: increase | growth as measured by MTS assay (sensitivity) [10]: relatively resistant; also recorded: virtually no suppression of growth; also recorded: not sensitive | growth compared to parental UW228 cells (MTS) [18]: decreased growth | flank tumor size / tumor growth ([19]; vs PBS, 75 mg/kg): markedly smaller tumors; also recorded: inhibits tumor growth | mice that developed flank tumors ([19]; control group 100%): 40% | apoptosis (cleaved caspase-3 immunofluorescence) [11]: increase apoptosis | reduction in proliferation [20]: did not respond strongly; also recorded: modest reduction
